# Source: ChEMBL document CHEMBL4304807, “Modulators of KEAP-1 Activity as Potential Therapies for the Treatment of Neurodegenerative Disorders” (ACS Med Chem Lett, 2019)
# Target: Kelch-like ECH-associated protein 1 (Homo sapiens, UniProt Q14145)
# Assay: Inhibition of KEAP1 interaction with Nrf2 in human HEK293 cells transfected with ARE-LUC assessed as activation of Nrf2 signaling pathway measured after 18 hrs by steady-Glo luciferase assay
# Type: cell-based
# Kelch-like ECH-associated protein 1, sequence (Q14145 whole entry): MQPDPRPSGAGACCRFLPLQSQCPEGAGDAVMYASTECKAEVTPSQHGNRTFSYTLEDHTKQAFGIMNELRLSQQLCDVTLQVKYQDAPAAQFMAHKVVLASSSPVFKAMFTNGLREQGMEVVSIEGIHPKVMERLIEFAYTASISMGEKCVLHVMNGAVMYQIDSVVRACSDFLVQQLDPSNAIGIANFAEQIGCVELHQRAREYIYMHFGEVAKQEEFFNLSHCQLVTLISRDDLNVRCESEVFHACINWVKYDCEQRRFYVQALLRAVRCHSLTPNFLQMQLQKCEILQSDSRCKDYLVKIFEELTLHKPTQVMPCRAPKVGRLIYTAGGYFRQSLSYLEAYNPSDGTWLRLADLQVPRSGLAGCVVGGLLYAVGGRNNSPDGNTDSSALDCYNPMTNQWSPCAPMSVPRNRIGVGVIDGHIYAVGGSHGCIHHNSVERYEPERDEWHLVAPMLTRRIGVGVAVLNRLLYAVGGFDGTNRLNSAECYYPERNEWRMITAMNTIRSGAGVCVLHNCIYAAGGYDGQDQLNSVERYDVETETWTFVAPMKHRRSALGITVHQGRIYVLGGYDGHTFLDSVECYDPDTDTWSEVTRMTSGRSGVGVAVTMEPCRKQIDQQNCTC
row,Compound,EC50 [nM]
1,COC1(c2ncc(F)cc2OC(F)F)C=C(C#N)C(=O)C(C)(C)C1 (centres undefined),8
2,COC1(c2ncccc2C(F)(F)F)C=C(C#N)C(=O)C(C)(C)C1 (centres undefined),24
3,COC1(c2ncc(F)cc2C(F)F)C=C(C#N)C(=O)C2(CC2)C1 (centres undefined),18
4,COC1(c2ncc(F)cc2-c2cnc(C)s2)C=C(C#N)C(=O)C(C)(C)C1 (centres undefined),7
